Assays:
blackgrass = assay: Test B pre/postemergence blackgrass; type: in vivo, Alopecurus myosuroides
Summary of the method: (§1)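 Test chemicals in a non-phytotoxic solvent mixture with surfactant were sprayed preemergence onto planted seeds and postemergence onto plants 2 to 18 cm tall (1- to 4-leaf stage). After twelve to sixteen days in a greenhouse, injury was visually rated against untreated controls from 0 (no effect) to 10 (complete control).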

surinam grass = assay: Test B pre/postemergence surinam grass; type: in vivo, Brachiaria decumbens
Summary of the method: as §1

cocklebur = assay: Test B pre/postemergence cocklebur; type: in vivo, Xanthium strumarium
Summary of the method: as §1

corn = assay: Test B pre/postemergence corn; type: in vivo, Zea mays
Summary of the method: as §1

morningglory = assay: Test B pre/postemergence morningglory; type: in vivo, Ipomoea hederacea
Summary of the method: as §1

pigweed = assay: Test B pre/postemergence pigweed; type: in vivo, Amaranthus retroflexus
Summary of the method: as §1

rape = assay: Test B pre/postemergence rape; type: in vivo, Brassica napus
Summary of the method: as §1

velvetleaf = assay: Test B pre/postemergence velvetleaf; type: in vivo, Abutilon theophrasti
Summary of the method: as §1

wheat = assay: Test B pre/postemergence wheat; type: in vivo, Triticum aestivum
Summary of the method: as §1

wild oat = assay: Test B pre/postemergence wild oat; type: in vivo, Avena fatua
Summary of the method: as §1

purple nutsedge = assay: Test B pre/postemergence purple nutsedge; type: in vivo, Cyperus rotundus
Summary of the method: as §1

rice = assay: Test B flood test rice; type: in vivo, Oryza sativa
Summary of the method: (§2)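 Read-out is a visual response score from 0 (no effect) to 10 (complete control), assigned by comparison with untreated controls. Treatment was applied at the 2-leaf stage, and plants stayed in the greenhouse for twelve to sixteen days before scoring.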

smallflower flatsedge = assay: Test B flood test smallflower flatsedge; type: in vivo, Cyperus difformis
Summary of the method: as §2

duck salad = assay: Test B flood test duck salad; type: in vivo, Heteranthera limosa
Summary of the method: as §2

bamyardgrass = assay: Test B flood test barnyardgrass; type: in vivo, Echinochloa crus-galli
Summary of the method: as §2

[1] = Postemergence, Rate 125 g/ha, scale of 0 to 10 where 0 is no effect and 10 is complete control
[2] = Postemergence, Rate 250 g/ha, scale of 0 to 10, 0 is no effect, 10 is complete control
[3] = Postemergence, Rate 1000 g/ha, scale 0 to 10 (0 no effect, 10 complete control)
[4] = Preemergence, Rate 125 g/ha, scale of 0 to 10 where 0 is no effect and 10 is complete control
[5] = Preemergence, Rate 250 g/ha, scale 0 to 10 (0 no effect, 10 complete control)
[6] = Preemergence, Rate 500 g/ha, scale of 0 to 10 where 0 is no effect and 10 is complete control
[7] = Rate 500 g/ha, Postemergence, scale 0 to 10, 0 is no effect, 10 is complete control
[8] = Rate 1000 g/ha, Preemergence, scale 0 to 10 (0 no effect, 10 complete control)
[9] = Pre-emergence, Rate 1000 g/ha, scale 0 to 10 (0 no effect, 10 complete control)
[10] = Rate 125 g/ha, under heading Pre-emergence, flood test species, visual evaluation after twelve to sixteen days
[11] = Rate 250 g/ha, Pre-emergence (flood test species), scale 0 to 10, 0 is no effect, 10 is complete control
[12] = Rate 500 g/ha, Pre-emergence section of Table B, 0 to 10 scale (0 no effect, 10 complete control)

## COP(=O)(CCn1c(=O)on(C(=O)N(c2ccc(F)cc2)C(C)C)c1=O)OC [Compound 662]
blackgrass; [1]
  Blackgrass plant response rating: 0
blackgrass; [2]
  Blackgrass plant response rating: 0
blackgrass; [3]
  Blackgrass plant response rating: 6
blackgrass; [4]
  Blackgrass plant response rating: 3
blackgrass; [5]
  Plant response rating, Blackgrass: 4
blackgrass; [6]
  Plant response rating, Blackgrass: 9
blackgrass; [7]
  Blackgrass plant response rating: 3
blackgrass; [8]
  Plant response rating, Blackgrass: 9
Surinam grass; [1]
  Plant response rating, B. signalgrass: 0
Surinam grass; [2]
  B. signalgrass plant response rating: 0
Surinam grass; [3]
  B. signalgrass plant response rating: 2
Surinam grass; [4]
  B. signalgrass plant response rating: 0
Surinam grass; [5]
  Plant response rating, B. signalgrass: 3
Surinam grass; [6]
  Plant response rating, B. signalgrass: 7
Surinam grass; [7]
  B. signalgrass plant response rating: 2
Surinam grass; [8]
  Plant response rating, B. signalgrass: 9
cocklebur; [1]
  Cocklebur plant response rating: 0
cocklebur; [2]
  Cocklebur plant response rating: 0
cocklebur; [3]
  Cocklebur plant response rating: 5
cocklebur; [4]
  Cocklebur plant response rating: 0
cocklebur; [5]
  Plant response rating, Cocklebur: 0
cocklebur; [6]
  Plant response rating, Cocklebur: 2
cocklebur; [7]
  Cocklebur plant response rating: 0
cocklebur; [8]
  Plant response rating, Cocklebur: 9
corn; [1]
  Corn plant response rating: 0
corn; [2]
  Corn plant response rating: 0
corn; [3]
  Corn plant response rating: 1
corn; [4]
  Corn plant response rating: 0
corn; [5]
  Plant response rating, Corn: 0
corn; [6]
  Plant response rating, Corn: 3
corn; [7]
  Corn plant response rating: 0
corn; [8]
  Plant response rating, Corn: 5
morningglory; [1]
  Morningglory plant response rating: 7
morningglory; [2]
  Morningglory plant response rating: 9
morningglory; [3]
  Morningglory plant response rating: 7
morningglory; [4]
  Morningglory plant response rating: 0
morningglory; [5]
  Plant response rating, Morningglory: 0
morningglory; [6]
  Plant response rating, Morningglory: 1
morningglory; [7]
  Morningglory plant response rating: 7
morningglory; [8]
  Plant response rating, Morningglory: 3
pigweed; [1]
  Redroot pigweed plant response rating: 0
pigweed; [3]
  Redroot pigweed plant response rating: 0
pigweed; [4]
  Redroot pigweed plant response rating: 0
pigweed; [5]
  Plant response rating, Redroot pigweed: 3
pigweed; [6]
  Plant response rating, Redroot pigweed: 7
pigweed; [7]
  Redroot pigweed plant response rating: 0
pigweed; [8]
  Plant response rating, Redroot pigweed: 7
rape; [1]
  Rape plant response rating: 0
rape; [3]
  Rape plant response rating: 0
rape; [4]
  Rape plant response rating: 0
rape; [5]
  Plant response rating, Rape: 0
rape; [6]
  Plant response rating, Rape: 0
rape; [7]
  Rape plant response rating: 0
rape; [8]
  Plant response rating, Rape: 4
velvetleaf; [1]
  Velvetleaf plant response rating: 0
velvetleaf; [3]
  Velvetleaf plant response rating: 0
velvetleaf; [4]
  Velvetleaf plant response rating: 0
velvetleaf; [5]
  Plant response rating, Velvetleaf: 0
velvetleaf; [6]
  Plant response rating, Velvetleaf: 2
velvetleaf; [7]
  Velvetleaf plant response rating: 0
velvetleaf; [8]
  Plant response rating, Velvetleaf: 2
wheat; [1]
  Wheat plant response rating: 0
wheat; [3]
  Wheat plant response rating: 0
wheat; [4]
  Wheat plant response rating: 0
wheat; [5]
  Plant response rating, Wheat: 0
wheat; [6]
  Plant response rating, Wheat: 0
wheat; [7]
  Wheat plant response rating: 0
wheat; [8]
  Plant response rating, Wheat: 5
Wild oat; [1]
  Wild oats plant response rating: 1
Wild oat; [3]
  Wild oats plant response rating: 1
Wild oat; [4]
  Wild oats plant response rating: 0
Wild oat; [5]
  Plant response rating, Wild oats: 0
Wild oat; [6]
  Plant response rating, Wild oats: 9
Wild oat; [7]
  Wild oats plant response rating: 1
Wild oat; [8]
  Plant response rating, Wild oats: 9
Purple nutsedge; [1]
  Nutsedge plant response rating: 0
Purple nutsedge; [4]
  Nutsedge plant response rating: 0
Purple nutsedge; [5]
  Plant response rating, Nutsedge: 4
Purple nutsedge; [6]
  Plant response rating, Nutsedge: 7
Purple nutsedge; [7]
  Nutsedge plant response rating: 5
Purple nutsedge; [8]
  Plant response rating, Nutsedge: 10
rice; [9]
  Rice plant response rating: 0
rice; [10]
  Rice plant response rating (0 to 10 scale, 0 is no effect, 10 is complete control): 0
rice; [11]
  Rice plant response rating: 0
rice; [12]
  Rice plant response rating: 0
Smallflower flatsedge; [9]
  S. Flatsedge plant response rating: 0
Smallflower flatsedge; [10]
  S. Flatsedge plant response rating (0 to 10 scale, 0 is no effect, 10 is complete control): 0
Smallflower flatsedge; [11]
  S. Flatsedge plant response rating: 0
Smallflower flatsedge; [12]
  S. Flatsedge plant response rating: 0
Duck salad; [9]
  Ducksalad plant response rating: 0
Duck salad; [10]
  Ducksalad plant response rating (0 to 10 scale, 0 is no effect, 10 is complete control): 0
Duck salad; [11]
  Ducksalad plant response rating: 0
Duck salad; [12]
  Ducksalad plant response rating: 0
bamyardgrass; [9]
  Barnyardgrass plant response rating: 0
bamyardgrass; [10]
  Barnyardgrass plant response rating (0 to 10 scale, 0 is no effect, 10 is complete control): 0
bamyardgrass; [11]
  Barnyardgrass plant response rating: 0
bamyardgrass; [12]
  Barnyardgrass plant response rating: 0
